Test results: US10894775B2, “Piperidine derivatives as liver X receptor beta agonists, compositions, and their use” (Merck Sharp & Dohme Corp., priority 2016, dated 2021)
Read-outs that look alike come from different tables or passages of the source.

Columns and labels:
[1] = target: T1, glutathione-S-transferase (GST) tagged LXRalpha LBD (ligand binding domain) (Homo sapiens, UniProt Q13133); experiment: LanthaScreen TR-FRET Liver X Receptor Coactivator Assay, LXR alpha; type: biochemical; conditions: for Emax: read-out: LXR alpha actiivty at max dose (%); for EC50 / LXR alpha IP (nM): potency (Inflection Point) of compound-induced co-activator recruitment, TR-FRET
T1 construct: purchased Invitrogen pv4655
T1 sequence (Q13133 209-447 limits assumed): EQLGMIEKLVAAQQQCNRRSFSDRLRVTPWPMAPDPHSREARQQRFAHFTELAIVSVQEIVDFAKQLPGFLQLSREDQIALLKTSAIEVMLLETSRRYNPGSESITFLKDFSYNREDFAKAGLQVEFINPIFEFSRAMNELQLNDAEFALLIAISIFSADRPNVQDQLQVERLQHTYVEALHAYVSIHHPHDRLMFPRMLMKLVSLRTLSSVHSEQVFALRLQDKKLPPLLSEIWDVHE
In short: (§1)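 Compound + LBD (alpha or beta); add fluorescein coactivator peptide/Tb anti-GST Ab mix; incubate RT; read TR-FRET.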

[2] = target: T2, glutathione-S-transferase (GST) tagged LXRbeta LBD (ligand binding domain) (Homo sapiens, UniProt P55055); experiment: LanthaScreen TR-FRET Liver X Receptor Coactivator Assay, LXR beta; type: biochemical; conditions: for Emax: read-out: LXR beta actiivty at max dose (%); for EC50: potency (Inflection Point) of compound-induced co-activator recruitment, TR-FRET
T2 construct: purchased Invitrogen pv4658.pps
T2 sequence (P55055 222-460 limits assumed): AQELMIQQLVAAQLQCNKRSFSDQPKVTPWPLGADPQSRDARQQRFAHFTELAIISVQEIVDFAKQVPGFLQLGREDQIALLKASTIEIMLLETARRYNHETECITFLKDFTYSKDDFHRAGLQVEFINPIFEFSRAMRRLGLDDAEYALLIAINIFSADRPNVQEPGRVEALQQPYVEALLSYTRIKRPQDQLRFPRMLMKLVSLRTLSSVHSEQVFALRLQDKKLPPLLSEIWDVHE
In short: as §1

[3] = efficacy (Emax) in relation to reference dual agonist T0901317

Emax [1, 3] | EC50 ([1]; read-out: LXR alpha IP) | Emax [2, 3] | EC50 ([2]; read-out: LXR beta IP) | LXR alpha IP (nM) [1] | LXR alpha actiivty at max dose (%) [1, 3] | LXR beta actiivty at max dose (%) [2, 3] | Compound | Emax [1] | EC50 ([2]; LXR beta IP (nM)) | Emax [2] | EC50 ([1]; LXR alpha IP (nM))
22% | 734 nM | 71% | 13 nM |  |  |  | COc1cccc([C@@](O)(C(=O)N2CCC(CCC[C@H](C)Nc3ccc(C(=O)N(C)C)c(Cl)c3)CC2)C(F)(F)F)c1 (single isomer, unassigned) [Example 4-1, 2-chloro-N,N-dimethyl-4-((S or R)-5-(1-((R or S)-3,3,3-trifluoro-2-hydroxy-2-(3-methoxyphenyl)propanoyl)piperidin-4-yl)pentan-2-ylamino)benzamide] |  |  |  | 
8% |  | 96% | 58 nM | No IP |  |  | CN(C)C(=O)c1ccc(CCCC2CC3(CCN(C(=O)C(O)(c4cccc(OC(F)(F)F)c4)C(F)(F)F)CC3)C2)cc1Cl (single isomer, unassigned) [Example 16-4, 2-chloro-N,N-dimethyl-4-(3-(7-((S or R)-3,3,3-trifluoro-2-hydroxy-2-(3-(trifluoromethoxy)phenyl)propanoyl)-7-azaspiro[3.5]nonan-2-yl)propyl)benzamide] |  |  |  | 
34% | 516 nM | 75% | 14 nM |  |  |  | CN(C)C(=O)c1ccc(NC[C@H]2C[C@@H]2C2CCN(C(=O)[C@](O)(c3ccccc3)C(F)(F)F)CC2)cc1Cl (single isomer, unassigned) [Example 8-2, 2-chloro-N,N-dimethyl-4-(((1S,2R or 1R,2S)-2-(1-((R or S)-3,3,3-trifluoro-2-hydroxy-2-phenylpropanoyl)piperidin-4-yl)cyclopropyl)methylamino)benzamide] |  |  |  | 
0% |  | 95% | 136 nM | No IP |  |  | CCOc1cccc(C(O)(C(=O)N2CCC3(CCC(Sc4ccc(C(=O)N(C)C)c(Cl)c4)CC3)CC2)C(F)(F)F)c1 (single isomer, unassigned) [Example 19-3, 2-chloro-4-(3-((S or R)-2-(3-ethoxyphenyl)-3,3,3-trifluoro-2-hydroxypropanoyl)-3-azaspiro[5.5]undecan-9-ylthio)-N,N-dimethylbenzamide] |  |  |  | 
13% |  | 62% | 17 nM | No IP |  |  | CNC(=O)c1ccc(NCCCCC2CCN(C(=O)C(O)(c3cccc(OC(F)(F)F)c3)C(F)(F)F)CC2)cc1Cl (single isomer, unassigned) [Example 1-9, (S or R)-2-chloro-N-methyl-4-(4-(1-(3,3,3-trifluoro-2-hydroxy-2-(3-(trifluoromethoxy)phenyl)propanoyl)piperidin-4-yl)butylamino)benzamide] |  |  |  | 
8% |  | 43% | 19 nM | No IP |  |  | COc1cccc([C@@](O)(C(=O)N2CCC3(CC2)C[C@H]3CCCc2ccc(C(=O)NC3CC3)c(Cl)c2)C(F)(F)F)c1 (single isomer, unassigned) [Example 17-3, 2-chloro-N-cyclopropyl-4-(3-((R or S)-6-((R or S)-3,3,3-trifluoro-2-hydroxy-2-(3-methoxyphenyl)propanoyl)-6-azaspiro[2.5]octan-1-yl)propyl)benzamide] |  |  |  | 
43% | 147 nM | 72% | 3 nM |  |  |  | CN(C)C(=O)c1ccc(NCCCCC2CCN(C(=O)C(O)(c3ccccc3)C(F)(F)F)CC2)cc1Cl (single isomer, unassigned) [Example 1-15, (S or R)-2-chloro-N,N-dimethyl-4-(4-(1-(3,3,3-trifluoro-2-hydroxy-2-phenylpropanoyl)piperidin-4-yl)butylamino)benzamide] |  |  |  | 
29% | 772 nM | 113% | 59 nM |  |  |  | CN(C)C(=O)c1ccc(CCCC2CC3(CCN(C(=O)C(O)(c4ccccc4)C(F)(F)F)CC3)C2)cc1Cl (single isomer, unassigned) [Example 16-2, 2-chloro-N,N-dimethyl-4-(3-(7-((R or S)-3,3,3-trifluoro-2-hydroxy-2-phenylpropanoyl)-7-azaspiro[3.5]nonan-2-yl)propyl)benzamide] |  |  |  | 
 |  |  |  |  |  |  | COc1cccc([C@@](O)(C(=O)N2CCC3(CC2)CC(CCCc2ccc(C(=O)N(C)C)c(Cl)c2)C3)C(F)(F)F)c1 (single isomer, unassigned) [Example 16-1, 2-chloro-N,N-dimethyl-4-(3-(7-((R or S)-3,3,3-trifluoro-2-hydroxy-2-(3-methoxyphenyl)propanoyl)-7-azaspiro 13.51 nonan-2-yl)propyl)benzamide] | 19% | 132 nM | 100% | 1540 nM
12% |  | 54% | 73 nM | No IP |  |  | COc1cccc(C(O)(C(=O)N2CCC3(CCC(Nc4ccc(C(=O)N(C)C)c(Cl)c4)CC3)CC2)C(F)(F)F)c1 (single isomer, unassigned) [Example 10-1, 2-chloro-N,N-dimethyl-4-(3-((R or S)-3,3,3-trifluoro-2-hydroxy-2-(3-methoxyphenyl)propanoyl)-3-azaspiro[5.5]undecan-9-ylamino)benzamide] |  |  |  | 
 | 846 nM |  | 31 nM |  | 36% | 116% | CN(C)C(=O)c1ccc(CCCCC2CCN(C(=O)C(O)(c3ccccc3)C(F)(F)F)CC2)cc1Cl (single isomer, unassigned) [Example 15-3, (S or R)-2-chloro-N,N-dimethyl-4-(4-(1-(3,3,3-trifluoro-2-hydroxy-2-phenylpropanoyl)piperidin-4-yl)butyl)benzamide] |  |  |  | 

Compound | Emax [1, 3] | EC50 ([1]; read-out: LXR alpha IP) | Emax [2, 3] | EC50 ([2]; read-out: LXR beta IP) | LXR alpha IP (nM) [1] | LXR alpha actiivty at max dose (%) [1, 3] | LXR beta actiivty at max dose (%) [2, 3] | Emax [1] | EC50 ([2]; LXR beta IP (nM)) | Emax [2] | EC50 ([1]; LXR alpha IP (nM))
CN(C)C(=O)c1ccc([S+]([O-])C2CCC3(CC2)CCN(C(=O)C(O)(c2cc(Cl)cc(Cl)c2)C(F)(F)F)CC3)cc1Cl (single isomer, unassigned) [Example 20-1, 2-chloro-4-(3-((R or S)-2-(3,5-dichlorophenyl)-3,3,3-trifluoro-2-hydroxypropanoyl)-3-azaspiro[5.5]undecan-9-ylsulfinyl)-N,N-dimethylbenzamide] |  |  |  |  | No IP |  |  | 0% | 938 nM | 50% | 
CN(C)C(=O)c1ccc(N(C)CCCC2CCN(C(=O)C(O)(c3ccccc3)C(F)(F)F)CC2)cc1Cl (single isomer, unassigned) [Example 3-1, (S or R)-2-chloro-N,N-dimethyl-4-(methyl(3-(1-(3,3,3-trifluoro-2-hydroxy-2-phenylpropanoyl)piperidin-4-yl)propyl)amino)benzamide] | 16% | 1150 nM |  |  |  |  |  |  | 47 nM | 109% | 
